Counter-ions that a name gives are not always drawn.
How the values were obtained:
[1] = system: foot mucosa of slugs (species Arion); test: Slug mucosal toxicity test, Example 1 (15 min daily treatment, five days); type: in vivo; settings: for % WL, reduction in weight (weight loss) caused by the 15 minute treatment as % of initial body weight of the day / % MP, mucus production as % of the body weight at the start of the day before the treatment: 1% w/v in PBS; for % MP, mucus production as % of the body weight at the start of the day before the treatment / ALP released into PBS / LDH released into PBS / Protein released into PBS: 15 min; for ALP released into PBS / LDH released into PBS / Protein released into PBS: total mean of 7 samples/day per slug
Excerpt: Initially, the slugs are kept on a culture under controlled conditions of temperature and humidity until they have reached a stable body weight. The purpose of achieving a stable body weight is to improve the reproducibility of the results, particularly as the release of substances from the slugs may conveniently be measured in terms of the body weight thereof. The slugs are then isolated from the culture and placed in a vented plastic box lined with moist paper towel and placed at 95% relative humidity at 20° C. seven days before the start of an experiment. The slugs were not bred in any particular way, i.e. they were wild slugs. It is anticipated that even more accurate and reproducible results can be obtained by selective breeding of the slugs, although as shown by the test results this is not a necessary requirement of the present invention to obtain accurate and useful data.
The test procedure is simple and rapid. The chemical substance to be tested is applied directly to the mucosal membrane of a slug, e.g. to the foot, by placing the slug individually in a petri dish containing the test substance. Slugs treated with phosphate buffered saline are used as a negative control. As a positive control slugs treated with a known toxic substance, benzalkonium chloride, were used.
Because the mucosal epithelium of interest is located at the outside of the slug the effect of substances can be easily observed. […] This can also be simply measured by weighing the petri dish before and after the treatment of the slugs with the chemical substance (with the slugs removed in each case). Additionally an indirect response to epithelial damage caused by a chemical substance may be determined by the reduction of the body weight of the slugs due to the leakage of haemolymphatic fluids through the damaged foot surface.
After the treatment the slugs are transferred individually to a fresh petri dish containing phosphate buffered saline. After a suitable exposure time, e.g. 1 hour the phosphate buffered saline is collected and analysed for the presence of proteins and/or enzymes, e.g. lactate dehydrogenase and/or alkaline phosphatase, or other marker substances released from the foot or epithelium of the slug, for example membrane associated components such as phospholipids or cholesterol. This procedure can be repeated after periods of several hours in order to determine the reversibility of the cell damage caused by the test chemical substance. The concentration or amount of the chemical substance to be tested can be changed and the influence of the concentration can be easily examined. The exposure time can also be changed if required. The slugs can be treated during several successive days in order to investigate the subchronical effect of substances on the foot mucosa.
Seven days before the start of the experiment the slugs were isolated in a plastic box lined with moist paper towel and placed at 95% relative humidity at 20° C. As test substances didecanyol-L-α-phosphatidylcholine (DDPC) and sodium deoxycholate (SDC) were selected. Benzalkonium chloride (1% w/v), SDC (1% w/v) and DDPC (1%, w/v) were prepared in phosphate buffered saline (PBS, pH 7.4). […] During the test the slugs are preferably kept in a generally calm and normal state and are not subjected to mechanical vibrations or mechanical or electrical disturbances which may affect mucus production.
The enzymes (lactate dehydrogenase (LDH) and alkaline phosphatase (ALP)) and total protein released into the PBS were determined. The slugs were weighed before and after the incubation period to determine the body weight changes. The mucus production was measured by weighing the petri dishes before and after the treatment with a test substance. The results are shown in Table 1 and shown graphically in FIGS. 1 to 5.

[2] = system: foot mucosa of slugs of the species Arion; test: Slug mucosal toxicity test of local anaesthetics, Example 4; type: in vivo
Experimental: The following local anaesthetics were used as test substance: procaine HCl, lidocaine HCl, prilocaine HCl, tetracaine HCl and bupivacaine HCl. All test substances were prepared in PBS (pH 7.4) at 1% w/v concentrations. The slugs were daily incubate during 15 min with the test solution during five days. After the incubation period the slugs were placed on 1 ml PBS in a petri dish. The PBS was sampled every hour and refreshed with 1 ml PBS for 3 hours after the treatment.
The total protein released into the PBS was determined.

[3] = system: foot mucosa of slugs of species Arion; test: Slug mucosal toxicity test, Example 2 (15 min daily treatment, four days); settings: in vivo; for % MP, mucus production as % of the body weight at the start of the day before the treatment / ALP released into PBS / Protein released into PBS: Arion (slug)
Experimental: As test substance a β-blocking agent propranolo HCl (1% w/v) was used. Benzalkonium chloride (1% w/v) and Propranolol (1% w/v) were prepared in PBS (pH 7.4). The slugs were daily incubated during 15 min with the test solution during four days. After the incubation period the slugs were placed on 500 μL PBS in a petri dish. The PBS was sampled every hour and refreshed with 500 μL PBS for 3 hours after the treatment.
The enzymes (LDH, ALP) and the total protein released into the PBS were determined. The change in body weight and the mucus production caused by the treatment were examined.

[4] = 1% w/v, 15 min daily, five days

CCCCCCCCCC(=O)OC[C@H](COP(=O)([O-])OCC[N+](C)(C)C)OC(=O)CCCCCCCCC [DDPC, didecanyol-L-α-phosphatidylcholine]
membrane damage (in words) [1, 4]: little or no damage
% WL, reduction in weight (weight loss) caused by the 15 minute treatment as % of initial body weight of the day ([1]; day 1): 4.84%
% MP, mucus production as % of the body weight at the start of the day before the treatment ([1]; day 1): 0.2%
ALP released into PBS ([1]; day 1, 1% w/v): 9.43 U/L
LDH released into PBS ([1]; day 1, 1% w/v): 9.51 U/L
Protein released into PBS ([1]; day 1, 1% w/v): 12.43 μg/30 μL
% WL, reduction in weight (weight loss) caused by the 15 minute treatment as % of initial body weight of the day ([1]; day 2): 1.19%
% MP, mucus production as % of the body weight at the start of the day before the treatment ([1]; day 2): 0%
ALP released into PBS ([1]; day 2, 1% w/v): 21.83 U/L
LDH released into PBS ([1]; day 2, 1% w/v): 14.47 U/L
Protein released into PBS ([1]; day 2, 1% w/v): 3.77 μg/30 μL
% WL, reduction in weight (weight loss) caused by the 15 minute treatment as % of initial body weight of the day ([1]; day 3): 1.15%
% MP, mucus production as % of the body weight at the start of the day before the treatment ([1]; day 3): 0%
ALP released into PBS ([1]; day 3, 1% w/v): 13.82 U/L
LDH released into PBS ([1]; day 3, 1% w/v): 23.36 U/L
Protein released into PBS ([1]; day 3, 1% w/v): 6.41 μg/30 μL
% WL, reduction in weight (weight loss) caused by the 15 minute treatment as % of initial body weight of the day ([1]; day 4): 1.39%
% MP, mucus production as % of the body weight at the start of the day before the treatment ([1]; day 4): 0%
ALP released into PBS ([1]; day 4, 1% w/v): 4.55 U/L
LDH released into PBS ([1]; day 4, 1% w/v): 19.07 U/L
Protein released into PBS ([1]; day 4, 1% w/v): 4.98 μg/30 μL
% WL, reduction in weight (weight loss) caused by the 15 minute treatment as % of initial body weight of the day ([1]; day 5): 1.14%
% MP, mucus production as % of the body weight at the start of the day before the treatment ([1]; day 5): 0%
ALP released into PBS ([1]; day 5, 1% w/v): 12.42 U/L
LDH released into PBS ([1]; day 5, 1% w/v): 28.32 U/L
Protein released into PBS ([1]; day 5, 1% w/v): 2.40 μg/30 μL

CCCCN1CCCCC1C(=O)Nc1c(C)cccc1C (stereo not drawn) [Bupivacaine HCl, bupivacaine HCl]
% MP, mucus production as % of the body weight at the start of the day before the treatment ([2]; Arion (slug), in vivo, 1 day): 7.24%
Total protein release into PBS ([2]; Arion (slug), in vivo, 1 day): 755 µg/mL
% MP, mucus production as % of the body weight at the start of the day before the treatment ([2]; Arion (slug), in vivo, 2 day): 5.22%
Total protein release into PBS ([2]; Arion (slug), in vivo, 2 day): 464 µg/mL
% MP, mucus production as % of the body weight at the start of the day before the treatment ([2]; Arion (slug), in vivo, 3 day): 2.74%
Total protein release into PBS ([2]; Arion (slug), in vivo, 3 day): 277 µg/mL
% MP, mucus production as % of the body weight at the start of the day before the treatment ([2]; Arion (slug), in vivo, 4 day): 1.64%
Total protein release into PBS ([2]; Arion (slug), in vivo, 4 day): 159 µg/mL
% MP, mucus production as % of the body weight at the start of the day before the treatment ([2]; Arion (slug), in vivo, 5 day): 1.34%
Total protein release into PBS ([2]; Arion (slug), in vivo, 5 day): 313 µg/mL
mucus production (in words) ([2]; in vivo): increased mucus production
protein release (in words) ([2]; in vivo): increased protein release

CCCCNc1ccc(C(=O)OCCN(C)C)cc1 [Tetracaine HCl, tetracaine HCl]
% MP, mucus production as % of the body weight at the start of the day before the treatment ([2]; Arion (slug), in vivo, 1 day): 3.45%
Total protein release into PBS ([2]; Arion (slug), in vivo, 1 day): 413 µg/mL
% MP, mucus production as % of the body weight at the start of the day before the treatment ([2]; Arion (slug), in vivo, 2 day): 2.48%
Total protein release into PBS ([2]; Arion (slug), in vivo, 2 day): 130 µg/mL
% MP, mucus production as % of the body weight at the start of the day before the treatment ([2]; Arion (slug), in vivo, 3 day): 1.15%
Total protein release into PBS ([2]; Arion (slug), in vivo, 3 day): 120 µg/mL
% MP, mucus production as % of the body weight at the start of the day before the treatment ([2]; Arion (slug), in vivo, 4 day): 1.29%
Total protein release into PBS ([2]; Arion (slug), in vivo, 4 day): 128 µg/mL
% MP, mucus production as % of the body weight at the start of the day before the treatment ([2]; Arion (slug), in vivo, 5 day): 0.65%
Total protein release into PBS ([2]; Arion (slug), in vivo, 5 day): 149 µg/mL
mucus production (in words) ([2]; in vivo): increased mucus production
protein release (in words) ([2]; in vivo): increased protein release

CC(C)NCC(O)COc1cccc2ccccc12 (stereo not drawn) [Propr, propranolol HCl]
% MP, mucus production as % of the body weight at the start of the day before the treatment ([3]; 1 day): 0.77%
ALP released into PBS ([3]; 1 day): 0.35 U/L
Protein released into PBS ([3]; 1 day): 4.89 μg/30 μL
% MP, mucus production as % of the body weight at the start of the day before the treatment ([3]; 2 day): 3.74%
ALP released into PBS ([3]; 2 day): 2.19 U/L
Protein released into PBS ([3]; 2 day): 31.61 μg/30 μL
% MP, mucus production as % of the body weight at the start of the day before the treatment ([3]; 3 day): 3.11%
ALP released into PBS ([3]; 3 day): 17.50 U/L
Protein released into PBS ([3]; 3 day): 31.36 μg/30 μL
% MP, mucus production as % of the body weight at the start of the day before the treatment ([3]; 4 day): 2.80%
ALP released into PBS ([3]; 4 day): 18.43 U/L
Protein released into PBS ([3]; 4 day): 20.88 μg/30 μL
colour of the mucus excreted by the slugs [3]: orange coloured
irritation (in words) [3]: considerable irritation
membrane damage (in words) [3]: severe membrane damage
survival of the slugs [3]: all the slugs were dead

CCCNC(C)C(=O)Nc1ccccc1C (stereo not drawn) [Prilocaine HCl, prilocaine HCl]
% MP, mucus production as % of the body weight at the start of the day before the treatment ([2]; Arion (slug), in vivo, 1 day): 0%
Total protein release into PBS ([2]; Arion (slug), in vivo, 1 day): 139 µg/mL
% MP, mucus production as % of the body weight at the start of the day before the treatment ([2]; Arion (slug), in vivo, 2 day): 0%
Total protein release into PBS ([2]; Arion (slug), in vivo, 2 day): 62 µg/mL
% MP, mucus production as % of the body weight at the start of the day before the treatment ([2]; Arion (slug), in vivo, 3 day): 0%
Total protein release into PBS ([2]; Arion (slug), in vivo, 3 day): 72 µg/mL
% MP, mucus production as % of the body weight at the start of the day before the treatment ([2]; Arion (slug), in vivo, 4 day): 0%
Total protein release into PBS ([2]; Arion (slug), in vivo, 4 day): 65 µg/mL
% MP, mucus production as % of the body weight at the start of the day before the treatment ([2]; Arion (slug), in vivo, 5 day): 0%
Total protein release into PBS ([2]; Arion (slug), in vivo, 5 day): 82 µg/mL

CCN(CC)CCOC(=O)c1ccc(N)cc1 [Procaine HCl, procaine HCl]
% MP, mucus production as % of the body weight at the start of the day before the treatment ([2]; Arion (slug), in vivo, 1 day): 0%
Total protein release into PBS ([2]; Arion (slug), in vivo, 1 day): 204 µg/mL
% MP, mucus production as % of the body weight at the start of the day before the treatment ([2]; Arion (slug), in vivo, 2 day): 0%
Total protein release into PBS ([2]; Arion (slug), in vivo, 2 day): 62 µg/mL
% MP, mucus production as % of the body weight at the start of the day before the treatment ([2]; Arion (slug), in vivo, 3 day): 0%
Total protein release into PBS ([2]; Arion (slug), in vivo, 3 day): 92 µg/mL
% MP, mucus production as % of the body weight at the start of the day before the treatment ([2]; Arion (slug), in vivo, 4 day): 0%
Total protein release into PBS ([2]; Arion (slug), in vivo, 4 day): 54 µg/mL
% MP, mucus production as % of the body weight at the start of the day before the treatment ([2]; Arion (slug), in vivo, 5 day): 0%
Total protein release into PBS ([2]; Arion (slug), in vivo, 5 day): 70 µg/mL
damage (in words) ([2]; in vivo): little or no damage

CCN(CC)CC(=O)Nc1c(C)cccc1C [Lidocaine HCl, lidocaine HCl]
damage (in words) [2, 4]: little or no damage
% MP, mucus production as % of the body weight at the start of the day before the treatment ([2]; day 1, 1% w/v in PBS, 15 min): 0%
% MP, mucus production as % of the body weight at the start of the day before the treatment ([2]; day 2, 1% w/v in PBS, 15 min): 0%
% MP, mucus production as % of the body weight at the start of the day before the treatment ([2]; day 3, 1% w/v in PBS, 15 min): 0%
% MP, mucus production as % of the body weight at the start of the day before the treatment ([2]; day 4, 1% w/v in PBS, 15 min): 0%
% MP, mucus production as % of the body weight at the start of the day before the treatment ([2]; day 5, 1% w/v in PBS, 15 min): 0%
